Measurements as given in patent publication US20250154145A1, “OXER1 ANTAGONISTS AND USES THEREOF” (Fairhaven Pharmaceuticals Ins., priority 2021, published 2025).

These molecules were tested on neutrophils (assay: Neutrophil calcium flux assay (5-OXO-ETE-stimulated, Indo-1 fluorescence)). Details: 5-OXO-ETE-stimulated calcium flux.
Assay type: cell-based
Method in brief: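 Indo-1-loaded neutrophils (5×10^6 cells/ml, 30 min at 37 °C) in HBSS with Ca/Mg and HEPES, pre-incubated 5 min with antagonist or buffer. Stimulated with 5-OXO-ETE added at 200 nM (4× stock); fluorescence (ex 331/em 410 nm) read every 5 s for 30 cycles, expressed as net fluorescence.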

`CC(CC(=O)O)CC(=O)n1c(CCCCCCc2cccc(Cl)c2)cc2ncc(Cl)cc21` (stereo not shown) [Compound I-305] and `CC(CC(=O)O)CC(=O)c1c(CCCCCC(O)c2cccc(C(=O)N(C)C)c2)n(C)c2ncc(C#N)cc12` (single isomer, unassigned) [Compound I-317] cannot be ordered by IC50: < 0.1 µM for the first, < 0.1 µM for the second.

Same assay, conditions: Neutrophil, 5-OXO-ETE-stimulated calcium flux

Compared with `C[C@@H](CC(=O)c1c(CCCCOCc2cccc(Cl)c2)n(C)c2ncc(Cl)cc12)Cc1nnn[nH]1` [Compound I-355], `C[C@H](CC(=O)c1c(CCCCOCc2ccccc2)n(C)c2ncc(C#N)cc12)Cc1nnn[nH]1` (stereo in doubt) [Compound I-360] is higher in IC50: < 0.1 µM for the first, > 0.3 µM for the second. The first is the more potent here.

Going from `C[C@@H](CC(=O)O)CC(=O)c1c(CCCCOCc2cccc(C#N)c2)n(C)c2cnc(Cl)cc12` [Compound I-405] to `C[C@H](CC(=O)O)CC(=O)c1c(CCCCOCc2cccc(C#N)c2)n(C)c2cc(F)ccc12` [Compound I-413], the IC50 falls from > 0.3 µM to < 0.1 µM.

`C[C@H](CC(=O)O)CC(=O)c1c(CCCCCCc2cccnc2)n(C)c2ccc(Cl)cc12` [Compound I-53] and `C[C@H](CC(=O)O)CC(=O)c1c(CCCCCCc2ccncc2)n(C)c2ccc(Cl)cc12` [Compound I-55] cannot be ordered by IC50: < 0.1 µM for the first, < 0.1 µM for the second.

`C[C@H](CC(=O)NCCS(=O)(=O)O)CC(=O)c1c(CCCCOCc2ccccc2)n(C)c2ncc(C#N)cc12` [Compound I-461] and `CC[C@H](CC(=O)O)CC(=O)c1c(CCCCOCc2ccccc2)n(C)c2ncc(C#N)cc12` [Compound I-438] cannot be ordered by IC50: > 0.3 µM for the first, > 0.3 µM for the second.

`CC(CC(=O)O)CC(=O)c1c(CCCCOCc2cncnc2)n(C)c2ccc(C#N)cc12` (stereo not shown) [Compound I-393] and `C[C@@H](CC(=O)O)CC(=O)c1c(CCCCOCc2ccc(F)cc2)n(C)c2ncc(C#N)cc12` [Compound I-369] cannot be ordered by IC50: > 0.3 µM for the first, > 0.3 µM for the second.

`C[C@H](CC(=O)O)CC(=O)c1c(CCCCCCc2cnccn2)n(C)c2ccc(Cl)cc12` [Compound I-81] and `C[C@H](CC(=O)O)CC(=O)c1c(CCCCCCc2ccccn2)n(C)c2ccc(Cl)cc12` [Compound I-54] fall in the same range of IC50: 0.1 to 0.3 µM for the first, 0.1 to 0.3 µM for the second.

`CC(CC(=O)O)CC(=O)c1c(CCCCOCc2cc(C#N)ccn2)n(C)c2ncc(Cl)cc12` (stereo not shown) [Compound I-444] and `COc1nccc(COCCCCc2c(C(=O)CC(C)CC(=O)O)c3cc(Cl)cnc3n2C)n1` (stereo not shown) [Compound I-448] cannot be ordered by IC50: > 0.3 µM for the first, > 0.3 µM for the second.

`C[C@@H](CC(=O)NS(C)(=O)=O)CC(=O)c1c(CCCCCCc2cccc(Cl)c2)n(C)c2ccc(Cl)cc12` [Compound I-15] and `CC(CCC(=O)c1c(CCCCCCc2cccc(Cl)c2)n(C)c2ccc(Cl)cc12)C(=O)O` (stereo not shown) [Compound I-150] cannot be ordered by IC50: > 0.3 µM for the first, > 0.3 µM for the second.

Compared with `CC(CC(=O)O)CC(=O)c1c(CCCCCCc2cccc(Cl)c2)n(C[C@@H](O)CO)c2ncc(C#N)cc12` (stereo partly shown) [Compound I-284], `CC(CC(=O)O)CC(=O)c1c(CCCCCCc2cccc(Cl)c2)n(C[C@H](O)CO)c2ncc(C#N)cc12` (stereo partly shown) [Compound I-282] is higher in IC50: < 0.1 µM for the first, > 0.3 µM for the second. The first is the more potent here.

First: Cn1c(CCCCCCc2cccc(Cl)c2)c(C(=O)N2CCC[C@H](C(=O)O)C2)c2cc(Cl)ccc21 [Compound I-155]
Second: Cn1c(CCCCCCc2cccc(Cl)c2)c(C(=O)N2CC[C@H](C(=O)O)C2)c2cc(Cl)ccc21 [Compound I-118]
The IC50 of the first is higher: 0.1 to 0.3 µM for the first, < 0.1 µM for the second.

First: CC(CC(=O)O)CC(=O)c1c(CCCCOCc2cccc(Cl)c2)n(C)c2nccc(Cl)c12 (stereo not shown) [Compound I-379]
Second: C[C@H](CC(=O)O)CC(=O)c1c(CCCCOCc2cccc(F)c2)n(C)c2ncc(Cl)cc12 [Compound I-100]
The IC50 of the first is higher: > 0.3 µM for the first, 0.1 to 0.3 µM for the second.

Compared with `C[C@@H](CC(=O)O)CC(=O)c1c(CCCCOCc2cccc(OC(F)(F)F)c2)n(C)c2cnccc12` [Compound I-409], `CC(CC(=O)O)CC(=O)c1c(CCCCOCc2cccc(C#N)c2)n(C)c2ncc(C(F)(F)F)cc12` (stereo not shown) [Compound I-417] is lower in IC50: > 0.3 µM for the first, 0.1 to 0.3 µM for the second. The second is the more potent here.

`Cn1c(CCCCCCCC#CC2CC(F)(F)C2)c(C(=O)N2CC[C@H](C(=O)O)C2)c2cc(C#N)cnc21` [Compound I-342] and `Cn1c(CCCCCCCC#CC2CC(F)(F)C2)c(C(=O)N2CC[C@H](c3nnn[nH]3)C2)c2cc(C#N)cnc21` [Compound I-358] cannot be ordered by IC50: > 0.3 µM for the first, > 0.3 µM for the second.

`C[C@H](CC(=O)O)CC(=O)c1c(CCCCCCC#CC(C)(C)C)n(C)c2ccc(Cl)cc12` [Compound I-112] and `CCC#CCCCCCCc1c(C(=O)C[C@H](C)CC(=O)O)c2cc(Cl)ccc2n1C` [Compound I-116] cannot be ordered by IC50: < 0.1 µM for the first, < 0.1 µM for the second.

First: Cn1c(CCCCCCc2cccc(Cl)c2)c(C(=O)N2CC[C@H](c3nnn[nH]3)C2)c2cc(Cl)cnc21 [Compound I-149]
Second: Cn1c(CCCCCCc2cccc(Cl)c2)c(C(=O)N2CC(C(=O)O)C2)c2cc(Cl)ccc21 [Compound I-151]
The IC50 of the first is lower: < 0.1 µM for the first, 0.1 to 0.3 µM for the second. The first is the more potent here.

Compared with `CC(CC(=O)O)CC(=O)c1c(CCCCOCc2cccc(C(=O)N(C)C)c2)n(C)c2ncc(C#N)cc12` (stereo not shown) [Compound I-370], `CC(=O)Nc1cccc(COCCCCc2c(C(=O)CC(C)CC(=O)O)c3cc(C#N)cnc3n2C)c1` (stereo not shown) [Compound I-298] is higher in IC50: < 0.1 µM for the first, 0.1 to 0.3 µM for the second.

`C[C@H](CC(=O)O)CC(=O)c1c(CCCCCOc2ccccn2)n(C)c2ccc(Cl)cc12` [Compound I-131] and `C[C@H](CC(=O)O)CC(=O)c1c(CCCCCOc2ncccn2)n(C)c2ccc(Cl)cc12` [Compound I-130] cannot be ordered by IC50: > 0.3 µM for the first, > 0.3 µM for the second.

Compared with `C[C@H](CC(=O)O)CC(=O)c1c(CCCOCCC#CC2CC(F)(F)C2)n(C)c2ccc(Cl)cc12` [Compound I-325], `CC(CC(=O)O)CC(=O)c1c(CCCCCCCC#CC2CC(F)(F)C2)n(C)c2ncc(Cl)cc12` (stereo not shown) [Compound I-334] is higher in IC50: < 0.1 µM for the first, > 0.3 µM for the second. The first is the more potent here.

`CC(CNC(=O)c1c(CCCCOCc2cccc(Cl)c2)n(C)c2ncc(C#N)cc12)C(=O)O` (stereo not shown) [Compound I-242] and `Cn1c(CCCCOCc2cccc(Cl)c2)c(C(=O)N2CC[C@H](C(=O)O)C2)c2cc(C#N)cnc21` [Compound I-179] cannot be ordered by IC50: > 0.3 µM for the first, > 0.3 µM for the second.

`Cn1c(CCCCOCc2ccccc2)c(C(=O)CC(CC(=O)O)C(F)(F)F)c2cc(C#N)cnc21` (stereo not shown) [Compound I-440] and `CC(C)[C@@H](CC(=O)O)CC(=O)c1c(CCCCOCc2ccccc2)n(C)c2ncc(C#N)cc12` [Compound I-437] cannot be ordered by IC50: > 0.3 µM for the first, > 0.3 µM for the second.

`Cn1c(CCCCOCc2ccccc2)c(C(=O)N2CC[C@H](C(=O)O)C2)c2cc(C#N)cnc21` [Compound I-178] and `Cn1c(CCCCOCc2cccc(Cl)c2)c(C(=O)N2CCC[C@H](C(=O)O)C2)c2cc(C#N)cnc21` [Compound I-181] cannot be ordered by IC50: > 0.3 µM for the first, > 0.3 µM for the second.

`C[C@H](CC(=O)O)CC(=O)c1c(CCCCCN(C)c2ncccn2)n(C)c2ccc(Cl)cc12` [Compound I-124] and `C[C@H](CC(=O)O)CC(=O)c1c(CCCCCNc2ncccn2)n(C)c2ccc(Cl)cc12` [Compound I-82] fall in the same range of IC50: 0.1 to 0.3 µM for the first, 0.1 to 0.3 µM for the second.

`CC(CC(=O)O)CC(=O)c1c2cc(C#N)cnc2n(C)c1[C@H]1CC[C@H](COCc2cccc(Cl)c2)CC1` (stereo partly shown) [Compound I-401] and `CC(CC(=O)O)CC(=O)c1c2cc(C#N)cnc2n(C)c1[C@H]1CC[C@@H](COCc2cccc(Cl)c2)CC1` (stereo partly shown) [Compound I-400] cannot be ordered by IC50: > 0.3 µM for the first, > 0.3 µM for the second.

Compared with `C[C@H](CC(=O)O)CC(=O)c1c(CCOCC#Cc2cccnc2)n(C)c2ncc(Cl)cc12` [Compound I-228], `CC(CC(=O)O)CC(=O)c1c(CCOCCNc2cccc(Cl)c2)n(C)c2ncc(C#N)cc12` (stereo not shown) [Compound I-288] is lower in IC50: > 0.3 µM for the first, 0.1 to 0.3 µM for the second.

`CC(CC(=O)O)CC(=O)c1c(CCCCCCc2cccc(C#N)c2)n(C)c2ncc(Cl)cc12` (stereo not shown) [Compound I-285] and `CC(CC(=O)O)CC(=O)c1c(CCCCCC(O)c2cccc(C#N)c2)n(C)c2ncc(Cl)cc12` (stereo not shown) [Compound I-286] cannot be ordered by IC50: < 0.1 µM for the first, < 0.1 µM for the second.

`Cn1nc(-c2cccc(Cl)c2)c(C(=O)N2CC[C@H](C(=O)O)C2)c1CCCCOCc1cccc(Cl)c1` [Compound I-191] and `Cn1cc(-c2ccccc2Cl)c(C(=O)N2CC[C@H](C(=O)O)C2)c1CCCCOCc1cccc(Cl)c1` [Compound I-166] cannot be ordered by IC50: > 0.3 µM for the first, > 0.3 µM for the second.

First: Cn1c(CCCCCCc2cccc(Cl)c2)c(C(=O)N2CCC[C@H]2CC(=O)O)c2cc(Cl)ccc21 [Compound I-121]
Second: C[C@H](CC(=O)O)CC(=O)c1c(CCOCCCc2cccc(Cl)c2)n(C)c2ccc(Cl)cc12 [Compound I-62]
The IC50 of the first is higher: > 0.3 µM for the first, < 0.1 µM for the second. The second is the more potent here.

`CC(CC(=O)O)CC(=O)c1c(C[C@H]2CC[C@@H](OCc3cccc(Cl)c3)CC2)n(C)c2ncc(C#N)cc12` (stereo partly shown) [Compound I-399] and `CC(CC(=O)O)CC(=O)c1c(C2CCN(CCc3cccc(Cl)c3)CC2)n(C)c2ncc(C#N)cc12` (stereo not shown) [Compound I-295] cannot be ordered by IC50: > 0.3 µM for the first, > 0.3 µM for the second.

`C[C@H](CC(=O)O)CC(=O)c1c(CCCCOCc2ccccc2)n(C)c2ncccc12` [Compound I-101] and `CC(CC(=O)O)CC(=O)c1c(CCCCOCCc2ccccc2)n(C)c2ncc(C#N)cc12` (stereo not shown) [Compound I-424] cannot be ordered by IC50: > 0.3 µM for the first, > 0.3 µM for the second.

Going from `C[C@H](CC(=O)O)CC(=O)c1c(CCCCOCc2ccc(F)cc2)n(C)c2ncc(Cl)cc12` [Compound I-215] to `C[C@H](CC(=O)O)CC(=O)c1c(CCCCOCc2ccc(F)cc2)n(C)c2ncc(C#N)cc12` [Compound I-249], the IC50 falls from > 0.3 µM to < 0.1 µM. The second is the more potent here.

First: Cn1c(CCCCOCc2cccc(Cl)c2)c(C(=O)N2CC[C@H](C(=O)O)C2)c2cnccc21 [Compound I-442]
Second: Cn1c(CCCCCCC#CC2CC(F)(F)C2)c(C(=O)N2CC[C@H](C(=O)O)C2)c2cc(Cl)ccc21 [Compound I-339]
The IC50 of the first is higher: > 0.3 µM for the first, < 0.1 µM for the second. The second is the more potent here.

Compared with `C[C@H](CC(=O)O)CC(=O)c1c(CCCCCNc2cccc(Cl)c2)n(C)c2ccc(Cl)cc12` [Compound I-79], `CC(CC(=O)O)CC(=O)c1c(CCOCCNc2ccc(F)cc2)n(C)c2ccc(Cl)cc12` (stereo not shown) [Compound I-220] is higher in IC50: < 0.1 µM for the first, > 0.3 µM for the second.

`CCCCCCc1cc2ccc(Cl)cc2n1C(=O)C[C@H](C)CC(=O)O` [Compound I-12] and `CC(CC(=O)O)CC(=O)c1c(CCCCOCc2cccc(C#N)c2)n(C)c2cccnc12` (stereo not shown) [Compound I-398] cannot be ordered by IC50: > 0.3 µM for the first, > 0.3 µM for the second.

`Cn1c(CCCCCCC#CC2CC(F)(F)C2)c(C(=O)O)c2cc(Br)cnc21` [Compound I-348] and `Cn1c(CCCCCCC#CC2CC(F)(F)C2)c(C(=O)N2CC[C@H](c3noc(=O)[nH]3)C2)c2cc(Br)cnc21` [Compound I-457] cannot be ordered by IC50: > 0.3 µM for the first, > 0.3 µM for the second.
